PubChem BioAssay AID256 (DTP/NCI, 2004)
Where “and” joins values, the source holds several entries; their conditions need not be identical. Identical values can stand only once. Inconclusive results and toxic doses are left out. The calls were made as follows: active = survival T/C of 150% or more; inactive = T/C below 125% in these data.

Test system: CD2F1 mice, L1210 leukemia ip, survival T/C
Experiment: NCI In Vivo Anticancer Drug Screen. Data for tumor model L1210 Leukemia (intraperitoneal) in CD2F1 (CDF1) mice
Settings: higher = longer survival
How it was run: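 Each value reflects a quotient of treated over vehicle control outcomes in mice with a transplanted tumor.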

[1] = endpoint: mean survival time, dose: 100.0 mg/kg/injection, schedule: Q04DX002 (ip), vehicle: saline with Tween-80
[2] = endpoint: mean survival time, dose: 200.0 mg/kg/injection, schedule: Q04DX002 (ip), vehicle: saline with Tween-80
[3] = endpoint: mean survival time, dose: 75.0 mg/kg/injection, schedule: Q01DX001 (ip), vehicle: saline
[4] = endpoint: mean survival time, dose: 100.0 mg/kg/injection, schedule: Q01DX009 (ip), vehicle: saline with Tween-80
[5] = endpoint: mean survival time, dose: 200.0 mg/kg/injection, schedule: Q01DX009 (ip), vehicle: saline with Tween-80
[6] = endpoint: mean survival time, dose: 100.0 mg/kg/injection, schedule: Q04DX003 (ip), vehicle: saline with Tween-80
[7] = endpoint: mean survival time, dose: 200.0 mg/kg/injection, schedule: Q04DX003 (ip), vehicle: saline with Tween-80

Measured: T/C

NC(=O)c1ncn(C2OC(COP(=O)(O)O)C(O)C2O)n1 (stereo unspecified)
inactive: endpoint: mean survival time, dose: 12.5 mg/kg/injection, schedule: Q01DX005 (ip), vehicle: water 98 % of control | endpoint: mean survival time, dose: 25.0 mg/kg/injection, schedule: Q01DX005 (ip), vehicle: water 101 % of control | endpoint: mean survival time, dose: 50.0 mg/kg/injection, schedule: Q01DX005 (ip), vehicle: water 102 % of control | endpoint: mean survival time, dose: 100.0 mg/kg/injection, schedule: Q01DX005 (ip), vehicle: water 98 % of control | endpoint: mean survival time, dose: 200.0 mg/kg/injection, schedule: Q01DX005 (ip), vehicle: water 102 % of control

CC(C)CC(CCl)Cc1nc2ccccc2[nH]1 (stereo unspecified)
inactive: [1] 94 % of control | [2] 97 % of control

Nc1nc(Br)nc2c1ncn2C1OC(CO)C(O)C1O (stereo unspecified)
inactive: [3] 109 % of control

O=C(O)/C=C\C(=O)Nc1ccc(Cl)cc1Cl
inactive: [4] 103 % of control | [5] 95 % of control

On1ccnc2nncc1-2
inactive: endpoint: mean survival time, dose: 11.3 mg/kg/injection, schedule: Q01DX005 (ip), vehicle: other 104 % of control | endpoint: mean survival time, dose: 22.5 mg/kg/injection, schedule: Q01DX005 (ip), vehicle: other 104 % of control | endpoint: mean survival time, dose: 45.0 mg/kg/injection, schedule: Q01DX005 (ip), vehicle: other 101 % of control | endpoint: mean survival time, dose: 90.0 mg/kg/injection, schedule: Q01DX005 (ip), vehicle: other 97 % of control | endpoint: mean survival time, dose: 180.0 mg/kg/injection, schedule: Q01DX005 (ip), vehicle: other 93 % of control | endpoint: mean survival time, dose: 200.0 mg/kg/injection, schedule: Q01DX005 (ip), vehicle: other 102 % of control | endpoint: mean survival time, dose: 400.0 mg/kg/injection, schedule: Q01DX005 (ip), vehicle: other 106 % of control

CCOC(=O)c1ccc2c(c1)Cc1cc(N)ccc1-2
inactive: endpoint: mean survival time, dose: 100.0 mg/kg/injection, schedule: Q01DX001 (ip), vehicle: carboxymethylcellulose (CMC) 98 % of control | endpoint: mean survival time, dose: 200.0 mg/kg/injection, schedule: Q01DX001 (ip), vehicle: carboxymethylcellulose (CMC) 95 % of control

ClCC(Cl)C(Cl)CCl (stereo unspecified)
inactive: endpoint: mean survival time, dose: 50.0 mg/kg/injection, schedule: Q01DX001 (ip), vehicle: saline with Tween-80 95 % of control | endpoint: mean survival time, dose: 100.0 mg/kg/injection, schedule: Q01DX001 (ip), vehicle: saline with Tween-80 109 % of control | endpoint: mean survival time, dose: 200.0 mg/kg/injection, schedule: Q01DX001 (ip), vehicle: saline with Tween-80 86 % of control

[N-]=[N+]=CC(=O)NCC(=O)NCCO
inactive: endpoint: mean survival time, dose: 50.0 mg/kg/injection, schedule: Q01DX001 (ip), vehicle: other 101 % of control | endpoint: mean survival time, dose: 100.0 mg/kg/injection, schedule: Q01DX001 (ip), vehicle: other 103 % of control | endpoint: mean survival time, dose: 200.0 mg/kg/injection, schedule: Q01DX001 (ip), vehicle: other 106 % of control | endpoint: mean survival time, dose: 200.0 mg/kg/injection, schedule: Q01DX009 (ip), vehicle: other 103 % of control | endpoint: mean survival time, dose: 400.0 mg/kg/injection, schedule: Q01DX001 (ip), vehicle: other 109 % of control | endpoint: mean survival time, dose: 600.0 mg/kg/injection, schedule: Q01DX009 (ip), vehicle: other 121 % of control | endpoint: mean survival time, dose: 1000.0 mg/kg/injection, schedule: Q01DX009 (ip), vehicle: other 114 % of control

COC(=O)C(Br)C(OC)c1ccc(Cl)cc1 (stereo unspecified)
inactive: [4] 101 % of control | endpoint: mean survival time, dose: 100.0 mg/kg/injection, schedule: Q04DX003 (ip), vehicle: saline sonified 100 % of control | [5] 95 % of control | endpoint: mean survival time, dose: 200.0 mg/kg/injection, schedule: Q04DX003 (ip), vehicle: saline sonified 101 % of control | endpoint: mean survival time, dose: 400.0 mg/kg/injection, schedule: Q01DX009 (ip), vehicle: saline with Tween-80 97 % of control | endpoint: mean survival time, dose: 400.0 mg/kg/injection, schedule: Q04DX003 (ip), vehicle: saline sonified 95 % of control

c1ccc(Cn2cc(CCc3ccncc3)c3ccccc32)cc1
inactive: endpoint: mean survival time, dose: 50.0 mg/kg/injection, schedule: Q01DX009 (ip), vehicle: saline with Tween-80 88 % of control | [4] 93 % of control | [6] 91 % of control | [7] 92 % of control

O=P1(C(Cl)Cl)OCCCO1
inactive: endpoint: mean survival time, dose: 100.0 mg/kg/injection, schedule: Q01DX001 (ip), vehicle: saline 103 % of control | endpoint: mean survival time, dose: 200.0 mg/kg/injection, schedule: Q01DX001 (ip), vehicle: saline 100 % of control | endpoint: mean survival time, dose: 400.0 mg/kg/injection, schedule: Q01DX001 (ip), vehicle: saline 100 % of control

O=C1C(=O)C(Br)=C(Br)C(Br)=C1Br
inactive: [6] 91 % of control | [7] 91 % of control

c1cc2c3c(c1)-c1nc4ccccc4cc1CN3CCC2
inactive: [6] 98 % of control | [7] 101 % of control | endpoint: mean survival time, dose: 400.0 mg/kg/injection, schedule: Q04DX003 (ip), vehicle: saline with Tween-80 97 % of control

C=C(Br)CNC(=O)C(=O)OCC
inactive: [6] 105 % of control

CN1CCN(CC(=O)N2c3ccccc3Sc3cc4ccccc4cc32)CC1
inactive: [3] 101 % of control | endpoint: mean survival time, dose: 150.0 mg/kg/injection, schedule: Q01DX001 (ip), vehicle: saline 108 % of control | endpoint: mean survival time, dose: 300.0 mg/kg/injection, schedule: Q01DX001 (ip), vehicle: saline 96 % of control

O=C(CCl)NCc1cn(C2CC(O)C(CO)O2)c(=O)[nH]c1=O (stereo unspecified)
inactive: endpoint: mean survival time, dose: 5.6 mg/kg/injection, schedule: Q01DX005 (ip), vehicle: water 111 % of control | endpoint: mean survival time, dose: 11.25 mg/kg/injection, schedule: Q01DX005 (ip), vehicle: water 100 % of control | endpoint: mean survival time, dose: 22.5 mg/kg/injection, schedule: Q01DX005 (ip), vehicle: water 103 % of control | endpoint: mean survival time, dose: 45.0 mg/kg/injection, schedule: Q01DX005 (ip), vehicle: water 95 % of control | endpoint: mean survival time, dose: 90.0 mg/kg/injection, schedule: Q01DX005 (ip), vehicle: water 103 % of control

CN(C)C(=S)Oc1ccc2ccc3ccccc3c2c1
inactive: [1] 96 % of control | [2] 89 % of control | endpoint: mean survival time, dose: 400.0 mg/kg/injection, schedule: Q04DX002 (ip), vehicle: saline with Tween-80 104 % of control

CSc1nc(NN)c2cnn(C3OC(CO)C(O)C3O)c2n1 (stereo unspecified)
inactive: endpoint: median survival time, dose: 11.3 mg/kg/injection, schedule: Q01DX005 (ip), vehicle: saline with Tween-80 107 % of control | endpoint: median survival time, dose: 22.5 mg/kg/injection, schedule: Q01DX005 (ip), vehicle: saline with Tween-80 104 % of control | endpoint: median survival time, dose: 45.0 mg/kg/injection, schedule: Q01DX005 (ip), vehicle: saline with Tween-80 102 % of control | endpoint: median survival time, dose: 90.0 mg/kg/injection, schedule: Q01DX005 (ip), vehicle: saline with Tween-80 105 % of control

CNc1ncn(-c2c(C)cccc2C)c(=O)n1
inactive: endpoint: median survival time, dose: 3.12 mg/kg/injection, schedule: Q01DX005 (ip), vehicle: Klucel (hydroxypropylcellulose) (HPC) 101 % of control | endpoint: median survival time, dose: 6.25 mg/kg/injection, schedule: Q01DX005 (ip), vehicle: Klucel (hydroxypropylcellulose) (HPC) 97 % of control | endpoint: median survival time, dose: 12.5 mg/kg/injection, schedule: Q01DX005 (ip), vehicle: Klucel (hydroxypropylcellulose) (HPC) 102 % of control | endpoint: median survival time, dose: 25.0 mg/kg/injection, schedule: Q01DX005 (ip), vehicle: Klucel (hydroxypropylcellulose) (HPC) 100 % of control | endpoint: median survival time, dose: 50.0 mg/kg/injection, schedule: Q01DX005 (ip), vehicle: Klucel (hydroxypropylcellulose) (HPC) 108 % of control | endpoint: median survival time, dose: 50.0 mg/kg/injection, schedule: Q01DX005 (ip), vehicle: saline with Tween-80 119 % of control and 98 % of control and 102 % of control | endpoint: median survival time, dose: 100.0 mg/kg/injection, schedule: Q01DX005 (ip), vehicle: saline with Tween-80 123 % of control and 98 % of control and 110 % of control | endpoint: median survival time, dose: 200.0 mg/kg/injection, schedule: Q01DX005 (ip), vehicle: saline with Tween-80 122 % of control and 107 % of control

O=C(CC(O)(C(F)(F)F)C(F)(F)F)c1ccc(C(=O)CC(O)(C(F)(F)F)C(F)(F)F)cc1
inactive: endpoint: mean survival time, dose: 12.5 mg/kg/injection, schedule: Q01DX009 (ip), vehicle: other 105 % of control | endpoint: mean survival time, dose: 25.0 mg/kg/injection, schedule: Q01DX009 (ip), vehicle: other 105 % of control | endpoint: mean survival time, dose: 50.0 mg/kg/injection, schedule: Q01DX009 (ip), vehicle: other 113 % of control | endpoint: mean survival time, dose: 100.0 mg/kg/injection, schedule: Q04DX003 (ip), vehicle: other 113 % of control | endpoint: mean survival time, dose: 200.0 mg/kg/injection, schedule: Q04DX003 (ip), vehicle: other 105 % of control
